Experimental data: patent US20040220268A1, “Compound that directly stimulates phospholipase C activity” (priority 2003, published 2004)

How the values were obtained:
[1] = tested on: HL60 cells; experiment: [Ca2+]i measurement with fura-2; assay type: cell-based, human; conditions: 25 μM
Description: (§1) Neutrophils and HL60, and differentiated HL60, U937, NIH3T3, and PC12 cells were loaded with fura-2 and then stimulated with 25 μM of m-3M3FBS. Changes in the 340 nm/380 nm excitation ratio were monitored, and converted to [Ca^2+]i levels. Data are presented as means ±S. E. M. of three independent experiments.
(§2) U937 (human histiocytic lymphoma cells), HL60 (human promyelocytic leukemia cells), NIH3T3 (NIH Swiss mouse embryo fibroblasts), and PC12 (rat adrenal pheochromocytoma cells) were obtained from the American Type Culture Collection (Rockville, Md.) and HeLa (human adenocarcinoma cells) Tet-off cells were purchased from Clontech (Palo Alto, Calif., U.S.A.) and maintained as recommended. The cells were maintained at about 1×10^6 cells/ml under standard incubator conditions (humidified atmosphere, 95% air, 5% CO2, 37° C.). HL60 cells were induced to differentiate into the granulocyte phenotype by adding dimethylsulfoxide (DMSO) (final concentration 1.25% v/v) for 5 days, as has been described before (Ithoh et al., 1998).
(§3) Freshly prepared human neutrophils were incubated in serum free RPMI 1640 medium with 3 μM of fura-2/AM at 37° C. for 30 min with continuous stirring. After washing with serum free RPMI 1640 medium, the cells were suspended in serum free RPMI containing 250 μM of sulfinpyrazone to prevent dye leakage. About 2×10^6 cells were suspended in Ca^2+ free Locke's solution (158.4 mM NaCl, 5.6 mM KCl, 1.2 mM MgCl2, 5 mM HEPES pH 7.3, 10 mM glucose, and 0.2 mM EGTA) for each measurement. Changes in the fluorescence ratio were measured at an emission wavelength of 500 nm for dual excitation wavelengths at 340 nm and 380 nm. The calibration of the fluorescence ratio versus [Ca^2+]i was performed as described by Grynkiewicz (Grynkiewicz et al., 1985).

[2] = tested on: U937 cells; experiment: [Ca2+]i measurement with fura-2; assay type: cell-based, human; conditions: 25 μM
Description: as §1, §2, §3

[3] = tested on: differentiated HL60 cells; experiment: [Ca2+]i measurement with fura-2; assay type: cell-based, human; conditions: 25 μM
Description: as §1, §2, §3

[4] = tested on: NIH3T3 cells; experiment: [Ca2+]i measurement with fura-2; assay type: cell-based, mouse; conditions: NIH 3T3; 25 μM
Description: as §1
as §2, with “HL60 cells were induced to differentiate into the granulocyte phenotype by adding dimethylsulfoxide (DMSO) (final concentration 1.25% v/v) for 5 days, as has been described before (Ithoh et al., 1998).” left out
(§4) Freshly prepared human neutrophils were incubated in serum free RPMI 1640 medium with 3 μM of fura-2/AM at 37° C. for 30 min with continuous stirring. […] Changes in the fluorescence ratio were measured at an emission wavelength of 500 nm for dual excitation wavelengths at 340 nm and 380 nm. The calibration of the fluorescence ratio versus [Ca^2+]i was performed as described by Grynkiewicz (Grynkiewicz et al., 1985).

[5] = tested on: PC12 cells; experiment: [Ca2+]i measurement with fura-2; assay type: cell-based, rat; conditions: 25 μM
Description: as §1
as §2, with “HL60 cells were induced to differentiate into the granulocyte phenotype by adding dimethylsulfoxide (DMSO) (final concentration 1.25% v/v) for 5 days, as has been described before (Ithoh et al., 1998).” left out
as §4

[6] = tested on: human neutrophils; experiment: Cross-desensitization of [Ca2+]i responses in neutrophils; assay type: cell-based; conditions: extracellular calcium free
Description: FIG. 5 describes cross-desensitization experiments. Fura-2-loaded neutrophils were pretreated with m-3M3FBS (25 μM) and then rechallenged with ATP (500 μM) or WKYMVm (1 μM) in this or in the reverse order in the extracellular calcium free condition. Changes in the 340 nm/380 nm excitation ratio were monitored, and converted to [Ca^2+]i levels. The results shown are representative of three independent experiments.
as §3

[7] = tested on: Gs-proteins; experiment: Cyclic AMP generation (radio receptor assay); assay type: cell-based; conditions: human neutrophils; m-3M3FBS 25 μM, histamine 100 μM
Description: Isolated neutrophils were preincubated with PTX (1 μg/ml) or vehicle for 90 min at 37° C. and stimulated with m-3M3FBS, FMLF, or ATP at concentrations of 25, 1, and 500 μM, respectively. Changes in the excitation ratios at 340 nm/380 nm were monitored. Data are presented as means ±S. E. M. of two independent experiments (A). cAMP levels were determined by a radio receptor assay. Prepared cells were treated with m-3M3FBS (25 μM) or histamine (100 μM) and then lysed with Tris-EDTA. After removing the supernatant, [ 3H] cAMP and protein were added, and the amount of [^3H] cAMP-protein complex was determined. The amount of unlabeled cAMP (in the sample) was then calculated by measuring the protein-bound radioactivity. Data are presented as means ±S. E. M. of two independent experiments (B). […] RGS2-GFP inducible HeLa cells were cultured for 48 h in the absence or in the presence of tetracycline and loaded with fura-2. Cells were treated with histamine (100 μM) or m-3M3FBS (25 μM), and changes in the 340 nm/380 nm ratios were monitored and converted to [Ca^2+]i values. The results shown are representative of three independent experiments (C).

[8] = tested on: PLC; experiment: In vitro PLC activity in the presence or absence of Ca2+; assay type: biochemical; conditions: data not shown
Excerpt: Moreover, the primary structures of the several different isoforms of PLC are known (Rhee, 2001; Noh et al., 1995). PLC β and PLC δ have an NH2-terminal PH domain, an EF-hand, X and Y domains, known to form the catalytic core, and a COOH-terminal C2 domain. In addition, PLC β has a long C-terminal tail beyond the C2 domain (Rhee, 2001; Noh et al., 1995; Rhee and Bae, 1997). PLC γ has additional three SH domains between the X and Y domains, but no long COOH-terminal tail (Rhee, 2001; Noh et al., 1995; Rhee and Bae, 1997). […] For the proper activation of PLC enzyme, calcium has been regarded as an essential requirement (Rhee and Bae, 1997). Calcium is required not only for the functioning of C2 domain that mediates the Ca^2+-dependent binding to lipid vesicles but also for the catalytic activity of the enzyme (Rhee and Bae, 1997). […] An investigation of the effect of m-3M3FBS on the lipase activity of an X and Y domain mixture will be required to confirm the possible action of m-3M3FBS on the two catalytic cores. Since m-3M3FBS is the first compound that directly stimulates PLC activity, the elucidation of the action mechanism of the compound will give useful information on the basic molecular mechanisms of the activation of PLC enzymes.

[9] = tested on: PI3-kinase; experiment: Akt phosphorylation in U937 cells; assay type: cell-based, human; conditions: 50 μM, data not shown
Excerpt: The result led us to check whether the compound act specifically on PLC or act on other enzymes that recognize phosphoinositols as substrates such as phosphoinositide-3-kinase (PI3-kinase). For this, we tested the effect of m-3M3FBS on the Akt phosphorylation that is dependent on the PI3-kinase in U937 cells. […] The result support our notion that m-3M3FBS acts specifically on PLC.

[10] = tested on: phospholipase D; experiment: In vitro activity of phospholipase D; assay type: biochemical; conditions: data not shown

`Cc1cc(C)c(S(=O)(=O)Nc2cccc(C(F)(F)F)c2)c(C)c1` [m-3M3FBS, 2,4,6-Trimethyl-N-(meta 3-trifluoromethyl-phenyl)-benzenesulfonamide] was tested, and the calcium increase [1] was “induced calcium increase”, the calcium increase [2] was “induced calcium increase” and the calcium increase [3] was “induced calcium increase”. For the same molecule, the calcium increase [4] was “induced calcium increase”, the calcium increase [5] was “induced calcium increase” and the “[Ca2+]i response when given after ATP or WKYMVm” value ([6]; 25 μM after ATP 500 μM or WKYMVm 1 μM) was “elicited still further [Ca^2+]i increases”. For the same molecule, the “effect of prestimulation on cellular response to ATP” value ([6]; m-3M3FBS 25 μM, then ATP 500 μM) was “significantly reduced”, the “effect of prestimulation on cellular response to WKYMVm” value ([6]; m-3M3FBS 25 μM, then WKYMVm 1 μM) was “significantly reduced” and the “intracellular cAMP level” value [7] was “didn't change the cAMP level”. For the same molecule, the “in vitro PLC activity” value [8] was “stimulated”, the “phosphorylation level of Akt” value [9] was “couldn't significantly increase” and the “activity of phospholipase D” value [10] was “did not affect”.
